Several values for one entry are separate records, joined by “and”; a condition that tells them apart may be missing. Identical values can stand only once. Like-named read-outs stand apart in the source and are kept apart here.
Test system: Influenza A H3N2 virus (H3N2)
Type: cell-based
Conditions: for average inactivation efficiency against virus / inactivation efficiency against the virus: H3N2 virus; for inactivation efficiency against the virus: single experiment

`O=C(O[C@@H]1Cc2c(O)cc(O)cc2O[C@@H]1c1cc(O)c(O)c(O)c1)c1cc(O)c(O)c(O)c1` [EGCG, Epigallocatechin gallate] was tested, and the “CPE test, virus replication in cell wells (wells 1-10)” value (shortened to “CPE test … (wells 1-10)”) (1 mM EGCG + H3N2 virus, 1 minute, second experiment, dilution factor 10^6) was “−”, the “CPE test … (wells 1-10)” value (1 mM EGCG + H3N2 virus, 1 minute, second experiment, dilution factor 10^7) was “−” and the “CPE test … (wells 1-10)” value (1 mM EGCG + H3N2 virus, 1 minute, second experiment, dilution factor 10^8) was “−”. The “CPE test, virus replication in cell wells 1-10” value (shortened to “CPE test … in cell wells 1-10”) (1 mM EGCG + H3N2 virus, 1 minute, third experiment, dilution factor 10^2) was “+”, the “CPE test … in cell wells 1-10” value (1 mM EGCG + H3N2 virus, 1 minute, third experiment, dilution factor 10^3) was “+” and the “CPE test … in cell wells 1-10” value (1 mM EGCG + H3N2 virus, 1 minute, third experiment, dilution factor 10^4) was “+”. For the same compound, the “CPE test … in cell wells 1-10” value (1 mM EGCG + H3N2 virus, 1 minute, third experiment, dilution factor 10^5) was “− and +”, the “CPE test … in cell wells 1-10” value (1 mM EGCG + H3N2 virus, 1 minute, third experiment, dilution factor 10^6) was “−” and the “CPE test … in cell wells 1-10” value (1 mM EGCG + H3N2 virus, 1 minute, third experiment, dilution factor 10^7) was “−”. For the same compound, the “CPE test … in cell wells 1-10” value (1 mM EGCG + H3N2 virus, 1 minute, third experiment, dilution factor 10^8) was “−”, the “CPE test … in cell wells 1-10” value (1 mM EGCG + H3N2 virus, 5 minute, first experiment, dilution factor 10^3) was “− and +” and the “CPE test … in cell wells 1-10” value (1 mM EGCG + H3N2 virus, 5 minute, first experiment, dilution factor 10^4) was “+ and −”. The “CPE test … in cell wells 1-10” value (1 mM EGCG + H3N2 virus, 5 minute, first experiment, dilution factor 10^5) was “−”, the “CPE test … in cell wells 1-10” value (1 mM EGCG + H3N2 virus, 5 minute, first experiment, dilution factor 10^6) was “−” and the “CPE test … in cell wells 1-10” value (1 mM EGCG + H3N2 virus, 5 minute, first experiment, dilution factor 10^7) was “−”. For the same compound, the “CPE test … in cell wells 1-10” value (1 mM EGCG + H3N2 virus, 5 minute, first experiment, dilution factor 10^8) was “−”, the “CPE test … in cell wells 1-10” value (1 mM EGCG + H3N2 virus, 5 minute, second experiment, dilution factor 10^3) was “−” and the “CPE test … in cell wells 1-10” value (1 mM EGCG + H3N2 virus, 5 minute, second experiment, dilution factor 10^4) was “−”. The “CPE test … in cell wells 1-10” value (1 mM EGCG + H3N2 virus, 5 minute, second experiment, dilution factor 10^5) was “−”, the “CPE test … in cell wells 1-10” value (1 mM EGCG + H3N2 virus, 5 minute, second experiment, dilution factor 10^6) was “−” and the “CPE test … in cell wells 1-10” value (1 mM EGCG + H3N2 virus, 5 minute, second experiment, dilution factor 10^7) was “−”. The “CPE test … in cell wells 1-10” value (1 mM EGCG + H3N2 virus, 5 minute, second experiment, dilution factor 10^8) was “−”, the “average inactivation efficiency against virus” value (“average inactivation efficiency” for short) (1 mM EGCG, 1 minute, three experiments) was 61.78% and the “inactivation efficiency against the virus” value (1 mM EGCG, 5 minutes) was 99.50% and 99.87%. The “average inactivation efficiency” value (1 mM EGCG, 5 minutes, two experiments) was 99.69%, the “CPE test … (wells 1-10)” value (5 mM EGCG + H3N2 virus, 1 minute, first experiment, dilution factor 10^4) was “−” and the “CPE test … (wells 1-10)” value (5 mM EGCG + H3N2 virus, 1 minute, first experiment, dilution factor 10^5) was “−”. For the same compound, the “CPE test … (wells 1-10)” value (5 mM EGCG + H3N2 virus, 1 minute, first experiment, dilution factor 10^6) was “−”, the “CPE test … (wells 1-10)” value (5 mM EGCG + H3N2 virus, 1 minute, first experiment, dilution factor 10^7) was “−” and the “CPE test … (wells 1-10)” value (5 mM EGCG + H3N2 virus, 1 minute, first experiment, dilution factor 10^8) was “−”. For the same compound, the “CPE test … (wells 1-10)” value (5 mM EGCG + H3N2 virus, 1 minute, second experiment, dilution factor 10^3) was “+”, the “CPE test … (wells 1-10)” value (5 mM EGCG + H3N2 virus, 1 minute, second experiment, dilution factor 10^4) was “−” and the “CPE test … (wells 1-10)” value (5 mM EGCG + H3N2 virus, 1 minute, second experiment, dilution factor 10^5) was “−”. The “CPE test … (wells 1-10)” value (5 mM EGCG + H3N2 virus, 1 minute, second experiment, dilution factor 10^6) was “−”, the “CPE test … (wells 1-10)” value (5 mM EGCG + H3N2 virus, 1 minute, second experiment, dilution factor 10^7) was “−” and the “CPE test … (wells 1-10)” value (5 mM EGCG + H3N2 virus, 1 minute, second experiment, dilution factor 10^8) was “−”. For the same compound, the “CPE test … in cell wells 1-10” value (5 mM EGCG + H3N2 virus, 1 minute, third experiment, dilution factor 10^4) was “−”, the “CPE test … in cell wells 1-10” value (5 mM EGCG + H3N2 virus, 1 minute, third experiment, dilution factor 10^5) was “−” and the “CPE test … in cell wells 1-10” value (5 mM EGCG + H3N2 virus, 1 minute, third experiment, dilution factor 10^6) was “−”. The “CPE test … in cell wells 1-10” value (5 mM EGCG + H3N2 virus, 1 minute, third experiment, dilution factor 10^7) was “−”, the “CPE test … in cell wells 1-10” value (5 mM EGCG + H3N2 virus, 1 minute, third experiment, dilution factor 10^8) was “−” and the “CPE test … in cell wells 1-10” value (5 mM EGCG + H3N2 virus, 5 minute, first experiment, dilution factor 10^4) was “− and +”. For the same compound, the “CPE test … in cell wells 1-10” value (5 mM EGCG + H3N2 virus, 5 minute, first experiment, dilution factor 10^5) was “− and +”, the “CPE test … in cell wells 1-10” value (5 mM EGCG + H3N2 virus, 5 minute, first experiment, dilution factor 10^6) was “−” and the “CPE test … in cell wells 1-10” value (5 mM EGCG + H3N2 virus, 5 minute, first experiment, dilution factor 10^7) was “−”. The “CPE test … in cell wells 1-10” value (5 mM EGCG + H3N2 virus, 5 minute, first experiment, dilution factor 10^8) was “−”, the “CPE test … in cell wells 1-10” value (5 mM EGCG + H3N2 virus, 5 minute, second experiment, dilution factor 10^3) was “+” and the “CPE test … in cell wells 1-10” value (5 mM EGCG + H3N2 virus, 5 minute, second experiment, dilution factor 10^4) was “−”. For the same compound, the “CPE test … in cell wells 1-10” value (5 mM EGCG + H3N2 virus, 5 minute, second experiment, dilution factor 10^5) was “−”, the “CPE test … in cell wells 1-10” value (5 mM EGCG + H3N2 virus, 5 minute, second experiment, dilution factor 10^6) was “−” and the “CPE test … in cell wells 1-10” value (5 mM EGCG + H3N2 virus, 5 minute, second experiment, dilution factor 10^7) was “−”. The “CPE test … in cell wells 1-10” value (5 mM EGCG + H3N2 virus, 5 minute, second experiment, dilution factor 10^8) was “−”, the “inactivation efficiency against the virus” value (5 mM EGCG, 1 minute) was 98.74% and 96.84% and the “average inactivation efficiency” value (5 mM EGCG, 1 minute, three experiments) was 98.11%. The “inactivation efficiency against the virus” value (5 mM EGCG, 5 minutes) was 97.49% and 98.74% and the “average inactivation efficiency” value (5 mM EGCG, 5 minutes, two experiments) was 98.32%.

— patent publication US20240238242A1, “EGCG buccal tablet and use thereof” (priority 2023, published 2024)
